# Reference: patent publication US20230398105A1, “TREATMENT REGIMENS FOR PARKINSON'S DISEASE” (BIAL - PORTELA & Cª, S.A., priority 2020, published 2023)
# Assays:
# [1] = system: Parkinson's disease patients; experiment: Pooled BIPARK-I and BIPARK-II post-hoc analysis: change from baseline in absolute off-time; type: in vivo, human; conditions: after 14-15 weeks
# Text: The term “absolute off-time” is the combined total daily of 30-minute periods spent in an “off” state. Conversely, the term “absolute on-time” is the combined total daily of 30-minute periods spent in an “on” state. Periods where the patient is asleep are excluded from either group.
# The term “unpredictable motor fluctuations”, also known as “unpredictable on/off fluctuations” or “on/off phenomenon”, relates to the unpredictable re-emergence or worsening of symptoms at any time, such as severe troublesome dyskinesias, severe/unpredictable end-of-dose motor fluctuations, painful “off” dystonia and morning akinesia (Fabbri M. et al., Mov. Disord., 2018, 33, 1528-1539). Unpredictable motor fluctuations are unrelated to the timing of the next dose and may occur at any time during the day. […] Within the clinical trials analysed, unpredictable on/off fluctuations were defined as present if clinicians scored “NO” at the UPDRS item 36 (“Are “off” periods predictable?”), or “YES” in at least one of the following UPDRS items: 37 (“Are “off” periods unpredictable?”) and 38 (“Do “off” periods come on suddenly, within a few seconds?”).
# (§1) The results of the two multi-centered double-blinded (DB) randomized placebo-controlled trials BIPARK-I (Ferreira et al., Lancet Neurol., 2016, 15, 154-65) and BIPARK-II (Lees et al., JAMA Neurol., 2017, 74, 197-206) were pooled together. Both clinical trials were performed to evaluate the efficacy and safety of opicapone in addition to levodopa-treated patients with moderate end-of-dose motor fluctuations. All patients had signs of end-of-dose deterioration for at least 4 weeks before screening, with a mean total awake off-time (state of akinesia or decreased mobility) of at least 1.5 hours, excluding morning akinesia. Eligible patients were randomized at baseline to the double-blind phase using a computer-generated scheme (administered by Cenduit, LLC) in a ratio of 1:1:1 to the addition of oral capsular opicapone, 25 mg/day or 50 mg/day, or matching placebo. The double-blind phase assessments occurred at 4-week intervals and the total duration of the double-blind phase could be 14 to 15 weeks. Full details of the inclusion and exclusion criteria and on study design are described in Ferreira et al., Lancet Neurol., 2016, 15, 154-65 and Lees et al., JAMA Neurol., 2017, 74, 197-206, which are incorporated herein by reference. Reductions in the daily dose (but not frequency) of levodopa were allowed between baseline and 3 to 4 weeks after baseline according to the clinical response but were not permitted thereafter.
# (§2) Populations undergoing analysis included all randomized patients who took at least 1 dose of study medication and had at least 1 post-baseline off-time assessment. The post-hoc analysis described herein, analyzed Parkinson's disease patients with (“YES”) and without (“NO”) unpredictable on/off fluctuations.
# (§3) The primary efficacy variable was the change from baseline in absolute off-time. As secondary end-point, the inventors analyzed the absolute on-time as well as the proportions of patients achieving at least a 1-hour reduction in absolute off-time and/or the proportions of patients achieving at least a 1-hour increase in absolute on-time at the end of the double-blind phase, defined as “responders”.
# (§4) Changes from baseline were analysed using ANCOVA with treatment group included as fixed effect factor and the baseline scale score as a covariate. CMH-Test was used to assess differences between OPC dose levels and Placebo taking study into account as a factor.
# (§5) Opicapone was synthesised as described in WO 2013/089573 and formulated into 25 or 50 mg capsules as described in WO 2010/114405. Study treatment (opicapone or matching placebo) was taken orally once daily in the evening at least 1 hour after the last daily dose of levodopa/DDCI (considered the bedtime dose).
# [2] = system: Parkinson's disease patients; conditions: BIPARK-I; patients with end-of-dose motor fluctuations; cited from earlier work
# [3] = system: Parkinson's disease patients; experiment: Pooled BIPARK-I and BIPARK-II: treatment-emergent adverse events in the safety set; type: in vivo, human
# Text: The term “treatment-emergent adverse events” is defined as any event not present before exposure to the study drug or any event already present that worsens in either intensity or frequency after first intake of study drug until 2 weeks after last intake of the study drug.
# as §1, §5
# [4] = system: Parkinson's disease patients; experiment: Pooled BIPARK-I and BIPARK-II: OFF-time and ON-time responder rates (≥1 hour) at endpoint; type: in vivo, human
# Text: The term “responders” is defined as patients achieving at least a 1-hour reduction in absolute off-time and/or the proportions of patients achieving at least a 1-hour increase in absolute on-time at the end of the double-blind phase of the trial.
# as §1, §2, §3, §4, §5
# [5] = 25 mg, NO: without unpredictable motor fluctuations, N = 143
# [6] = 25 mg, YES: unpredictable motor fluctuations, N = 98
# [7] = 50 mg, NO: without unpredictable motor fluctuations, N = 175
# [8] = 50 mg, YES: unpredictable motor fluctuations, N = 87
# [9] = 25 mg, NO: without unpredictable motor fluctuations
# [10] = 25 mg, YES: with unpredictable motor fluctuations
# [11] = 50 mg, NO: without unpredictable motor fluctuations
# [12] = 50 mg, YES: with unpredictable motor fluctuations
smiles,measurement,setting,value
"Cc1c(Cl)c(C)[n+]([O-])c(Cl)c1-c1noc(-c2cc(O)c(O)c([N+](=O)[O-])c2)n1 [opicapone, 2,5-dichloro-3-[5-(3,4-dihydroxy-5-nitrophenyl)-1,2,4-oxadiazol-3-yl]-4,6-dimethylpyridine 1-oxide]","Absolute off-time, change from baseline vs. placebo","[1]; 25 mg vs. placebo, NO: patients without unpredictable motor fluctuations",-20.4 min
same,"Absolute off-time, change from baseline vs. placebo","[1]; 25 mg vs. placebo, Total patients",-40.7 min
same,"Absolute off-time, change from baseline vs. placebo","[1]; 25 mg vs. placebo, YES: patients with unpredictable motor fluctuations",-61 min
same,"Absolute off-time, change from baseline to end-point","[1]; 25 mg, NO: patients without unpredictable motor fluctuations",-73.6 min
same,"Absolute off-time, change from baseline to end-point","[1]; 25 mg, Total patients",-98.7 min
same,"Absolute off-time, change from baseline to end-point","[1]; 25 mg, YES: patients with unpredictable motor fluctuations",-123.8 min
same,"Absolute off-time, change from baseline vs. placebo","[1]; 50 mg vs. placebo, Total patients",-64 min
same,"Absolute off-time, change from baseline to end-point","[1]; 50 mg, NO: patients without unpredictable motor fluctuations",-104.7 min
same,"Absolute off-time, change from baseline to end-point","[1]; 50 mg, Total patients",-122 min
same,"Absolute off-time, change from baseline to end-point","[1]; 50 mg, YES: patients with unpredictable motor fluctuations",-139.3 min
same,"ability to reduce the time patients spent in the off state, vs. entacapone",[2],non-inferior
same,"ability to reduce the time patients spent in the off state, vs. placebo combined with levodopa/DCCI",[2],superior
same,Incidence of Related Serious TEAEs,[3]; [5],0 number (%)
same,Incidence of Serious TEAEs,[3]; [5],2 (0.8) number (%)
same,Incidence of any TEAEs leading to Discontinuation,[3]; [5],7 (2.9) number (%)
same,TEAE: Anxiety,[3]; [5],0 number (%)
same,TEAE: Back pain,[3]; [5],4 (2.7) number (%)
same,TEAE: Constipation,[3]; [5],9 (6.2) number (%)
same,TEAE: Dizziness,[3]; [5],7 (4.8) number (%)
same,TEAE: Dry mouth,[3]; [5],8 (5.5) number (%)
same,TEAE: Dyskinesias,[3]; [5],14 (9.6) number (%)
same,TEAE: Falls,[3]; [5],3 (2.1) number (%)
same,TEAE: Headache,[3]; [5],6 (4.1) number (%)
same,TEAE: Hypertension,[3]; [5],6 (4.1) number (%)
same,TEAE: Insomnia,[3]; [5],11 (7.5) number (%)
same,TEAE: Nausea,[3]; [5],5 (3.4) number (%)
same,TEAE: Parkinson's disease,[3]; [5],4 (2.7) number (%)
same,TEAE: Somnolence,[3]; [5],3 (2.1) number (%)
same,TEAE: Urinary tract infection,[3]; [5],1 (0.7) number (%)
same,TEAE: ↑CPK (Blood creatine phosphokinase),[3]; [5],4 (2.7) number (%)
same,Incidence of Serious TEAEs,[3]; [6],3 (1.2) number (%)
same,Incidence of any TEAEs leading to Discontinuation,[3]; [6],6 (2.5) number (%)
same,TEAE: Anxiety,[3]; [6],5 (5.1) number (%)
same,TEAE: Back pain,[3]; [6],1 (1.0) number (%)
same,TEAE: Constipation,[3]; [6],3 (3.1) number (%)
same,TEAE: Dizziness,[3]; [6],3 (3.1) number (%)
same,TEAE: Dry mouth,[3]; [6],8 (8.2) number (%)
same,TEAE: Dyskinesias,[3]; [6],25 (25.5) number (%)
same,TEAE: Falls,[3]; [6],8 (8.2) number (%)
same,TEAE: Headache,[3]; [6],2 (2.0) number (%)
same,TEAE: Hypertension,[3]; [6],4 ( 4.1) number (%)
same,TEAE: Insomnia,[3]; [6],6 (6.1) number (%)
same,TEAE: Nausea,[3]; [6],6 (6.1) number (%)
same,TEAE: Parkinson's disease,[3]; [6],7 (7.1) number (%)
same,TEAE: Somnolence,[3]; [6],7 (7.1) number (%)
same,TEAE: Urinary tract infection,[3]; [6],3 (3.1) number (%)
same,TEAE: Weight decrease,[3]; [6],0 number (%)
same,TEAE: ↑CPK (Blood creatine phosphokinase),[3]; [6],3 (3.1) number (%)
same,Incidence of Serious TEAEs,[3]; [7],6 (2.3) number (%)
same,Incidence of any TEAEs leading to Discontinuation,[3]; [7],13 (4.9) number (%)
same,TEAE: Back pain,[3]; [7],1 (0.6) number (%)
same,TEAE: Constipation,[3]; [7],10 (5.6) number (%)
same,TEAE: Dizziness,[3]; [7],5 (2.8) number (%)
same,TEAE: Dry mouth,[3]; [7],5 (2.8) number (%)
same,TEAE: Dyskinesias,[3]; [7],35 (19.7) number (%)
same,TEAE: Falls,[3]; [7],3 (1.7) number (%)
same,TEAE: Headache,[3]; [7],7 (3.9) number (%)
same,TEAE: Hypertension,[3]; [7],7 (3.9) number (%)
same,TEAE: Insomnia,[3]; [7],6 (3.4) number (%)
same,TEAE: Nausea,[3]; [7],6 (3.4) number (%)
same,TEAE: Parkinson's disease,[3]; [7],5 (2.8) number (%)
same,TEAE: Somnolence,[3]; [7],3 (1.7) number (%)
same,TEAE: Urinary tract infection,[3]; [7],9 (5.1) number (%)
same,TEAE: Weight decrease,[3]; [7],9 (5.1) number (%)
same,TEAE: ↑CPK (Blood creatine phosphokinase),[3]; [7],12 (6.7) number (%)
same,Incidence of Related Serious TEAEs,[3]; [8],1 (0.4) number (%)
same,Incidence of Serious TEAEs,[3]; [8],7 (2.6) number (%)
same,Incidence of any TEAEs leading to Discontinuation,[3]; [8],10 (3.8) number (%)
same,TEAE: Anxiety,[3]; [8],3 (3.4) number (%)
same,TEAE: Back pain,[3]; [8],2 (2.3) number (%)
same,TEAE: Constipation,[3]; [8],7 (8.0) number (%)
same,TEAE: Dizziness,[3]; [8],4 (4.6) number (%)
same,TEAE: Dry mouth,[3]; [8],3 (3.4) number (%)
same,TEAE: Dyskinesias,[3]; [8],19 (21.8) number (%)
same,TEAE: Falls,[3]; [8],5 (5.7) number (%)
same,TEAE: Headache,[3]; [8],3 (3.4) number (%)
same,TEAE: Hypertension,[3]; [8],1 (1.1) number (%)
same,TEAE: Insomnia,[3]; [8],3 (3.4) number (%)
same,TEAE: Nausea,[3]; [8],2 (2.3) number (%)
same,TEAE: Parkinson's disease,[3]; [8],1 (1.1) number (%)
same,TEAE: Somnolence,[3]; [8],2 (2.3) number (%)
same,TEAE: Urinary tract infection,[3]; [8],1 (1.1) number (%)
same,TEAE: Weight decrease,[3]; [8],1.1 (0.4) number (%)
same,TEAE: ↑CPK (Blood creatine phosphokinase),[3]; [8],1 (1.1) number (%)
same,Safety in patients with unpredictable motor fluctuations,[3]; patients with unpredictable motor fluctuations,safe
same,"responders, off-time reduced (≥1 hour)",[4]; [9],58.7%
same,"responders, on-time increased (≥1 hour)",[4]; [9],53.8%
same,"responders, off-time reduced (≥1 hour)",[4]; [10],65.3%
same,"responders, on-time increased (≥1 hour)",[4]; [10],69.4%
same,"responders, off-time reduced (≥1 hour)",[4]; [11],68.6%
same,"responders, on-time increased (≥1 hour)",[4]; [11],61.7%
same,"responders, off-time reduced (≥1 hour)",[4]; [12],65.5%
same,"responders, on-time increased (≥1 hour)",[4]; [12],66.7%
